Converted amounts (≈) assume the structure as drawn. “And” between values parts separate entries of the source, which are not always exact repeats. Equal entries are not always repeated.

Series [1] deals with Colinus virginianus. The conditions noted are these: for NOEL / NOEC: reproduction developmental.
For series [2], the system named is Anas platyrhynchos. The note with it: for NOEL / NOEC: reproductive.
For series [3], the system named is Rattus norvegicus. The note with it: for LD50: acute, oral, mortality.
Series [4] has as its system Aphidius rhopalosiphi. Put plainly: LR50; higher = less toxic. The conditions noted are these: chronic/long-term; mortality.
Series [5] has as its system Typhlodromus pyri. Put plainly: LR50; higher = less toxic. The note with it: not reported; mortality.
Series [6] deals with Apis mellifera. The conditions noted are these: acute, mortality.
Series [7] deals with Oncorhynchus mykiss.
Series [8] relates to Daphnia magna. The note with it: chronic/long-term.
Series [9] has as its system Mus musculus. The note with it: acute, oral, mortality.
Series [10] relates to Tagia sp.
Series [11] relates to Bibionidae. The conditions noted are these: chronic/long-term.
Series [12] relates to Canidae. The conditions noted are these: chronic; duration: 1 years; Dog Other; clinical chemistry.
For series [13], the system named is Folsomia candida. The conditions noted are these: chronic/long-term.
[14] abbreviates: acute, duration: 5 days, oral, diet, mortality.

What is called NOAEL is the highest dose or exposure tested at which no adverse effect was seen. For `OC(Cc1ccccc1Cl)(Cn1cncn1)C1(Cl)CC1` (stereo not drawn), the LD50 was greater than 297 mg/kg-day in series [1] (acute, oral, diet, mortality) and greater than 2000 mg/kg in [1] (acute, oral, mortality). Besides, the NOEL was 14.8 mg/kg-day in [1] (duration: 20 weeks, oral, diet) and 63 mg/kg-day in series [2] (duration: 20 weeks, oral, feed). In addition, the no-observed-adverse-effect level (NOAEL) in [3] (chronic, organ weight) is 1.1 mg/kg-day; in series [3] (developmental, development), 1 mg/kg-day.
Turning to `OC(Cc1ccccc1Cl)(Cn1[nH]cnc1=S)C1(Cl)CC1` (stereo not drawn) [Prothioconazole], the figures for the LR50 in series [4] and in series [5] were 140 g/ha and 18.7 g/ha, respectively. Further, the LC50 in series [1] (setting [14]) is > 5000 mg/kg and 4090 mg/kg; in series [7] (acute, mortality) it was 1.83 mg/L (≈ 5.32 µM); in series [2] (short-term, duration: 5 days, oral, feed, reproduction), greater than 5000 mg/kg; in series [10] (acute, mortality), greater than 1000 mg/kg. Further, the LD50 in series [1] (setting [14]) is greater than 1410 mg/kg-day; in series [1] (acute, oral, mortality) it was greater than 2000 mg/kg; in [6] (dermal), greater than 200 µg/piece; in series [6] (oral, unspecified) it was greater than 71 µg/piece; in [9] (F), 3460 mg/kg; in series [9] (M) it was 2240 mg/kg-day. Also, the LD50 is greater than 2460 mg/kg-day in series [2] (short-term, duration: 5 days, oral, feed, mortality); 2510 mg/kg-day in series [3] (F); greater than 6200 mg/kg-day in series [3] (M/F); 2810 mg/kg-day in series [3] (M). Besides, the NOEC is 173 mg/kg-day in series [1] (duration: 20 weeks); no less than 1000 mg/kg-day in series [1] (duration: 22 weeks); 0.308 mg/L in [7] (chronic/long-term, other); 0.56 mg/L in series [8]; no less than 500 mg/kg in series [2] (duration: 20 weeks); 700 mg/kg in series [2] (duration: 21 weeks). Also, the figures for the NOEC in series [10] (chronic/long-term), in [11] and in series [13] were 1.33 mg/kg, 9.14 mg/L and 64 mg/kg, respectively. For the same compound, the NOEL is 14.8 mg/kg-day in [1] (duration: 20 weeks), no less than 86 mg/kg-day in series [1] (duration: 22 weeks), 63 mg/kg-day in series [2] (duration: 20 weeks) and 78 mg/kg-day in series [2] (duration: 21 weeks). For the same compound, the no observed adverse effect level (NOAEL) in series [12] came to 5 mg/kg-day; in series [3] (chronic, duration: 2 years, organ weight), 5 mg/kg-day; in [3] (developmental, development), 20 mg/kg-day.

These data come from EPA's ToxValDB 9.5 (doi:10.2903/j.efsa.2007.106r).
